Test results from ChEMBL document CHEMBL1201862, “PubChem BioAssay data set” (2004).
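Protocol summary: plate cells (96-well), add compound at 5 concentrations, incubate 48 h, interpolate endpoints linearly. GI50: concentration for 50% inhibition of growth.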 The source made the active and inactive calls. Rule as the data show it: active = GI50 up to about 1.1 µM and inactive = higher.

Legend:
Assay in all cases: DTP human tumour cell line panel, 48 h
IGROV-1 = test system: IGROV-1
NCI-H522 = test system: NCI-H522
SNB-75 = test system: SNB-75
OVCAR-5 = test system: OVCAR-5
SW-620 = test system: SW-620
HCC 2998 = test system: HCC 2998
SK-MEL-2 = test system: SK-MEL-2
RXF 393 = test system: RXF 393
UO-31 = test system: UO-31
PC-3 = test system: PC-3
KM12 = test system: KM12
MDA-MB-231 = test system: MDA-MB-231
EKVX = test system: EKVX
HT-29 = test system: HT-29
HL-60 = test system: HL-60
HCT-15 = test system: HCT-15
UACC-257 = test system: UACC-257
T47D = test system: T47D
OVCAR-8 = test system: OVCAR-8
CCRF-CEM = test system: CCRF-CEM
HOP-62 = test system: HOP-62
CAKI-1 = test system: CAKI-1
RPMI-8226 = test system: RPMI-8226
SK-MEL-5 = test system: SK-MEL-5
SN12C = test system: SN12C
MDA-N = test system: MDA-N
NCI-H460 = test system: NCI-H460
Malme-3M = test system: Malme-3M
UACC-62 = test system: UACC-62
OVCAR-4 = test system: OVCAR-4
SK-MEL-28 = test system: SK-MEL-28
ACHN = test system: ACHN
A498 = test system: A498
COLO 205 = test system: COLO 205
U-251 = test system: U-251
OVCAR-3 = test system: OVCAR-3
M14 = test system: M14
TK-10 = test system: TK-10
A549 = test system: A549
786-0 = test system: 786-0
SF-539 = test system: SF-539
SF-295 = test system: SF-295
MCF7 = test system: MCF7
SF-268 = test system: SF-268
LOX IMVI = test system: LOX IMVI
HCT-116 = test system: HCT-116
DU-145 = test system: DU-145
NCI-H226 = test system: NCI-H226
SK-OV-3 = test system: SK-OV-3
NCI-H23 = test system: NCI-H23
MDA-MB-435 = test system: MDA-MB-435
MOLT-4 = test system: MOLT-4
K562 = test system: K562
SNB-19 = test system: SNB-19
NCI/ADR-RES = test system: NCI/ADR-RES

With `FC1=C2C3CCC(C3)C2C1(F)F` (stereo not given) the GI50 (IGROV-1) was > 100 µM (inactive), the GI50 (NCI-H522) was > 100 µM (inactive) and the GI50 (SNB-75) was > 100 µM (inactive). The GI50 (OVCAR-5) was > 100 µM (inactive), the GI50 (SW-620) was > 100 µM (inactive) and the GI50 (HCC 2998) was > 100 µM (inactive). The GI50 (SK-MEL-2) was > 100 µM (inactive), the GI50 (RXF 393) was > 100 µM (inactive) and the GI50 (UO-31) was > 100 µM (inactive). For the same molecule, the GI50 (PC-3) was > 100 µM (inactive), the GI50 (KM12) was > 100 µM (inactive) and the GI50 (MDA-MB-231) was > 100 µM (inactive). For the same molecule, the GI50 (EKVX) was > 100 µM (inactive), the GI50 (HT-29) was > 100 µM (inactive) and the GI50 (HL-60) was 81.7 µM (inactive). The GI50 (HCT-15) was greater than 100 µM, the GI50 (UACC-257) was > 100 µM (inactive) and the GI50 (T47D) was > 100 µM (inactive). For the same molecule, the GI50 (OVCAR-8) was > 100 µM (inactive), the GI50 (CCRF-CEM) was 47.6 µM (inactive) and the GI50 (HOP-62) was > 100 µM (inactive). The GI50 (CAKI-1) was > 100 µM (inactive), the GI50 (RPMI-8226) was > 100 µM (inactive) and the GI50 (SK-MEL-5) was > 100 µM (inactive). The GI50 (SN12C) was > 100 µM (inactive), the GI50 (MDA-N) was > 100 µM (inactive) and the GI50 (NCI-H460) was > 100 µM (inactive). For the same molecule, the GI50 (Malme-3M) was > 100 µM (inactive), the GI50 (UACC-62) was > 100 µM (inactive) and the GI50 (OVCAR-4) was > 100 µM (inactive). The GI50 (SK-MEL-28) was > 100 µM (inactive), the GI50 (ACHN) was > 100 µM (inactive) and the GI50 (A498) was > 100 µM (inactive). For the same molecule, the GI50 (COLO 205) was > 100 µM (inactive), the GI50 (U-251) was > 100 µM (inactive) and the GI50 (OVCAR-3) was > 100 µM (inactive). The GI50 (M14) was > 100 µM (inactive), the GI50 (TK-10) was > 100 µM (inactive) and the GI50 (A549) was > 100 µM (inactive). The GI50 (786-0) was > 100 µM (inactive), the GI50 (SF-539) was > 100 µM (inactive) and the GI50 (SF-295) was > 100 µM (inactive). For the same molecule, the GI50 (MCF7) was > 100 µM (inactive), the GI50 (SF-268) was > 100 µM (inactive) and the GI50 (LOX IMVI) was > 100 µM (inactive). For the same molecule, the GI50 (HCT-116) was > 100 µM (inactive), the GI50 (DU-145) was > 100 µM (inactive) and the GI50 (NCI-H226) was > 100 µM (inactive). For the same molecule, the GI50 (SK-OV-3) was > 100 µM (inactive), the GI50 (NCI-H23) was > 100 µM (inactive) and the GI50 (MDA-MB-435) was > 100 µM (inactive). The GI50 (MOLT-4) was > 100 µM (inactive), the GI50 (K562) was > 100 µM (inactive) and the GI50 (SNB-19) was > 100 µM (inactive). The GI50 (NCI/ADR-RES) was > 100 µM (inactive).
